# Numbering of substitutions follows the chain as printed.
# Legend:
# Assay type in all cases: biochemical
# [1] = target: T1, Caldanaerobius polysaccharolyticus endo-β-mannanase Man5B, wild type, SEQ ID NO: 31 (Caldanaerobius polysaccharolyticus, UniProt D9J0D7); assay: Catalytic efficiency with oligosaccharides, HPAEC (Man5B); conditions: value for GM3 higher than that for GM2
# Description: Cloning, expression, and purification of Man5A-TM1, Man5A-TM2 and Man5B. C. polysaccharolyticus was cultured in TYG medium and DNA was isolated from mid-log cultures and purified using the Qiagen DNeasy Blood and Tissue kit with an integrated RNase treatment step. The genome of C. polysaccharolyticus was partially sequenced by the W. M. Keck Biotechnology Center at the University of Illinois at Urbana-Champaign. A Newbler assembly was generated which is comprised of ½ plate of FLX PE 454 data and ½ plate of 8 kb paired-end GSFLX Titanium data using a Genome Sequencer instrument from 454 Life Sciences (Branford, Conn.). The partial genome sequence was uploaded onto the Rapid Annotation using Subsystem Technology (RAST) server (Aziz et al., BMC Genomics, 9:75, 2008). Auto-annotation of the C. polysaccharolyticus partial genome sequence identified ORF0760 as a gene predicted to encode a bifunctional β-D-mannanase/endoglucanase (Man5B). Man5A was previously identified in a recombinant phage library of C. polysaccharolyticus genomic DNA, which was screened for endoglucanase activity (Cann et al., J Bacteriol, 181:1643, 1999) and the full sequence of this gene was also identified in the partial genome sequence for C. polysaccharolyticus. […]
# [2] = target: T2, Caldanaerobius polysaccharolyticus endo-β-mannanase Man5B (SEQ ID NO: 31) variant E258Q (Caldanaerobius polysaccharolyticus, UniProt D9J0D7, E258Q); assay: Kinetic properties with pNP-linked sugars (Man5B E258Q); conditions: relative to wild type
# T2 sequence (D9J0D7 1-330 E258Q): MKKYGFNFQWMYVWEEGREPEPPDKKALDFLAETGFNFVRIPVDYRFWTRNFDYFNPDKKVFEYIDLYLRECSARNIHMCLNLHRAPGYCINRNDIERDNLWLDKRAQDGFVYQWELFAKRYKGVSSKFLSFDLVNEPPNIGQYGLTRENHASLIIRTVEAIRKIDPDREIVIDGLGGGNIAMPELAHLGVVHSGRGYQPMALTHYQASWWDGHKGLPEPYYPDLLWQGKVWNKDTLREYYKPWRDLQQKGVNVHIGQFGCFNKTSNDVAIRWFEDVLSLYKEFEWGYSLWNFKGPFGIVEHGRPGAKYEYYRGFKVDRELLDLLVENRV
# Description: (§1) Determination of kinetic properties for wild type and mutant Man5B with pNP-linked sugars. Kinetic properties of wild type and mutant Man5B were determined for pNP-β-D-mannopyranoside and pNP-β-D-cellobioside. The substrate concentrations ranged from 0.06 to 10 mM and reactions were performed at 65° C. in citrate buffer (50 mM sodium citrate, pH 5.5). The reactions were equilibrated to 65° C. using a thermostated Cary 300 UV-Vis spectrophotometer, and the reactions were initiated by the addition of wild type (5 nM, final concentration) or mutant (2 μM, final concentration) Man5B. The rate of pNP release was determined by continuously monitoring the absorbance at 400 nm. Initial rate data were then plotted against the substrate concentrations, and the values of the Michaelis-Menten constant (KM) and the maximum velocity (Vmax) were estimated from a nonlinear curve fit using GraphPad Prism v5.01 from GraphPad Software (San Diego, Calif.). The kcat was calculated as the quotient of the Vmax and the concentration of enzyme used in the reaction.
# (§2) Site-directed mutagenesis. Mutagenesis was carried out using PCR-based […] […]
# (§3) Next, to test whether the mutations introduced in Man5B had any effects on the catalytic activity of this enzyme, the catalytic parameters for the wild type and mutant enzymes were determined using pNP-β-D-cellobioside and pNP-β-D-mannopyranoside as substrates.
# [3] = target: T3, Caldanaerobius polysaccharolyticus endo-β-mannanase Man5B (SEQ ID NO: 31) variant E258A (Caldanaerobius polysaccharolyticus, UniProt D9J0D7, E258A); assay: Kinetic properties with pNP-linked sugars (Man5B E258A); conditions: relative to wild type
# T3 sequence (D9J0D7 1-330 E258A): T2 sequence (D9J0D7 1-330 E258Q) with Q258A
# Description: as §1, §2, §3
# [4] = target: T4, Caldanaerobius polysaccharolyticus endo-β-mannanase Man5B (SEQ ID NO: 31) variant E137Q (Caldanaerobius polysaccharolyticus, UniProt D9J0D7, E137Q); assay: Kinetic properties with pNP-linked sugars (Man5B E137Q); conditions: relative to wild type
# T4 sequence (D9J0D7 1-330 E137Q): T2 sequence (D9J0D7 1-330 E258Q) with E137Q, Q258E
# Description: as §1, §2, §3
# [5] = target: T1, Caldanaerobius polysaccharolyticus endo-β-mannanase Man5B, wild type, SEQ ID NO: 31; assay: Kinetic properties with pNP-linked sugars (Man5B wild type); conditions: reference
# Description: The plasmid constructs were then introduced into E. coli BL-21 CodonPlus (DE3) RIL competent cells by heat shock, and grown overnight in lysogeny broth (LB) agar medium supplemented with ampicillin (100 μg/mL) and chloramphenicol (50 μg/mL) at 37° C. After 12 h, single colonies were selected and used to inoculate fresh LB (10 mL) supplemented with the antibiotics above at the same concentrations, followed by culturing with aeration for 8 h at 37° C. The pre-cultures were then inoculated into fresh LB (1 L) supplemented with ampicillin and chloramphenicol and the cultures were incubated at 37° C. with vigorous aeration (225 rpm/min). […] Aliquots of eluted fractions were analyzed by sodium dodecyl sulfate-polyacrylamide gel electrophoresis (SDS-PAGE) and protein bands were visualized by staining with Coomassie brilliant blue G-250. […] The UV absorbances of the protein solutions were recorded at 280 nm using a Nanoprop 1000 from Thermo Scientific (Waltham, Mass.) and the protein concentrations were calculated using the following extinction coefficients: Man5A-TM1, ε280 nm=189 mM^−1 cm^−1; Man5A-TM2, ε280 nm=113 mM^−1 cm^−1; Man5B, ε280 nm=103 mM^−1 cm^−1.
# Determination of kinetic properties for wild type and mutant Man5B with pNP-linked sugars. Kinetic properties of wild type and mutant Man5B were determined for pNP-β-D-mannopyranoside and pNP-β-D-cellobioside. […]
# [6] = target: T5, Caldanaerobius polysaccharolyticus endo-β-mannanase Man5B (SEQ ID NO: 31) variant E137A (Caldanaerobius polysaccharolyticus, UniProt D9J0D7, E137A); assay: Kinetic properties with pNP-linked sugars (Man5B E137A); conditions: relative to wild type
# T5 sequence (D9J0D7 1-330 E137A): T2 sequence (D9J0D7 1-330 E258Q) with E137A, Q258E
# Description: as §1, §2, §3
# T1 sequence (D9J0D7 entry or part of it): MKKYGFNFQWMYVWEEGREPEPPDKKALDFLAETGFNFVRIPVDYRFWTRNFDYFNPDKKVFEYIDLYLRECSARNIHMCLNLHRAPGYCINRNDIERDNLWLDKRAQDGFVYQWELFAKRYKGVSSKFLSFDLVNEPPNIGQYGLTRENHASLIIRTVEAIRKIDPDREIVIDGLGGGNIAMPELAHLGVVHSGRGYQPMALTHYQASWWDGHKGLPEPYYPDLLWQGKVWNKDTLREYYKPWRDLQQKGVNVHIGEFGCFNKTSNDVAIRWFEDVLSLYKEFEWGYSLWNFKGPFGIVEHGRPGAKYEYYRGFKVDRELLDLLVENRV
SMILES,"catalytic efficiency (kcat/Km), GM3 relative to GM2 [1] [fold]",rkcat (residual kcat) [2] [%],rkcat (residual kcat) [3] [%],rkcat (residual kcat) [4] [%],rkcat (residual kcat) [5] [%],rkcat (residual kcat) [6] [%]
"OC[C@H]1O[C@H](OC[C@H]2OC(O)[C@@H](O)[C@@H](O)[C@@H]2O[C@@H]2O[C@H](CO)[C@@H](O[C@@H]3O[C@H](CO)[C@@H](O)[C@H](O)[C@@H]3O)[C@H](O)[C@@H]2O)[C@H](O)[C@@H](O)[C@H]1O (stereo partly drawn) [6-galactosyl-mannotriose, α-1,6-galactosyl-mannotriose]",20,–,–,–,–,–
"O=[N+]([O-])c1ccc(O[C@@H]2O[C@H](CO)[C@@H](O[C@@H]3O[C@H](CO)[C@@H](O)[C@H](O)[C@H]3O)[C@H](O)[C@H]2O)cc1 [pNP-cellobioside, pNP-β-D-cellobioside]",–,0.62,0.55,1.96,100,0.48
O=[N+]([O-])c1ccc(O[C@@H]2O[C@H](CO)[C@@H](O)[C@H](O)[C@@H]2O)cc1 [pNP-β-D-mannopyranoside],–,0.03,0.04,0.04,100,0.04
